{
  "source": "PubChem BioAssay AID1963853",
  "about": "(Molecular Pharmacology Branch, DTP, NCI, 2024);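 further: spheroids exposed to compounds for seven days before readout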",
  "system": "266295-075-R-J1-PDC spheroid viability",
  "assay": "Anticancer human tumor 266295-075-R-J1-PDC patient-derived head and neck squamous carcinoma cell line growth inhibition [POLQ]",
  "details": "spheroids with HUVEC and MSC; for IC50: curve of first compound; for viability, T/C: stronger effect = lower value",
  "how_it_was_run": "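Three-cell-type spheroids modelling solid tumor plus stroma served as the readout system; POL inhibitors were tested individually and in combination, concentration ranges set by clinical Cmax where known.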",
  "key": {"[1]": {"details": "second compound 0.0316 µM, first compound 0.00316 µM"}, "[2]": {"details": "second compound 0.0316 µM, first compound 0.01 µM"}, "[3]": {"details": "second compound 0.0316 µM, first compound 0.0316 µM"}, "[4]": {"details": "second compound 0.0316 µM, first compound 0.1 µM"}, "[5]": {"details": "second compound 0.1 µM, first compound 0.00316 µM"}, "[6]": {"details": "second compound 0.1 µM, first compound 0.01 µM"}, "[7]": {"details": "second compound 0.1 µM, first compound 0.0316 µM"}, "[8]": {"details": "second compound 0.1 µM, first compound 0.1 µM"}, "[9]": {"details": "second compound 0.316 µM, first compound 0.00316 µM"}, "[10]": {"details": "second compound 0.316 µM, first compound 0.01 µM"}, "[11]": {"details": "second compound 0.316 µM, first compound 0.0316 µM"}, "[12]": {"details": "second compound 0.316 µM, first compound 0.1 µM"}, "[13]": {"details": "second compound 1 µM, first compound 0.00316 µM"}, "[14]": {"details": "second compound 1 µM, first compound 0.01 µM"}, "[15]": {"details": "second compound 1 µM, first compound 0.0316 µM"}, "[16]": {"details": "second compound 1 µM, first compound 0.1 µM"}, "[17]": {"details": "second compound 3.16 µM, first compound 0.00316 µM"}, "[18]": {"details": "second compound 3.16 µM, first compound 0.01 µM"}, "[19]": {"details": "second compound 3.16 µM, first compound 0.0316 µM"}, "[20]": {"details": "second compound 3.16 µM, first compound 0.1 µM"}, "[21]": {"details": "second compound 10 µM, first compound 0.00316 µM"}, "[22]": {"details": "second compound 10 µM, first compound 0.01 µM"}, "[23]": {"details": "second compound 10 µM, first compound 0.0316 µM"}, "[24]": {"details": "second compound 10 µM, first compound 0.1 µM"}},
  "data": [
    {"smiles": "CC[C@@]1(O)C(=O)OCc2c1cc1n(c2=O)Cc2cc3c(CN(C)C)c(O)ccc3nc2-1", "note": "+ Nc1ccc(C#CCN(C(=O)Cc2ncc(C(F)(F)F)cc2C(F)(F)F)c2ccc(F)cc2)nn1", "values": [
      {"measurement": "IC50", "setting": "second compound 0.0316 µM", "result": "> 100", "unit": "nM"},
      {"measurement": "IC50", "setting": "second compound 0.1 µM", "result": "> 100", "unit": "nM"},
      {"measurement": "IC50", "setting": "second compound 0.316 µM", "result": "> 100", "unit": "nM"},
      {"measurement": "IC50", "setting": "second compound 1 µM", "result": "> 100", "unit": "nM"},
      {"measurement": "IC50", "setting": "second compound 3.16 µM", "result": "> 100", "unit": "nM"},
      {"measurement": "IC50", "setting": "second compound 10 µM", "result": "> 100", "unit": "nM"},
      {"measurement": "viability, T/C", "setting": "second compound 0.0316 µM, first compound 0.000316 µM", "result": 98.9, "unit": "%"},
      {"measurement": "viability, T/C", "setting": "second compound 0.0316 µM, first compound 0.001 µM", "result": 105, "unit": "%"},
      {"measurement": "viability, T/C", "setting": "[1]", "result": 105, "unit": "%"},
      {"measurement": "viability, T/C", "setting": "[2]", "result": 95.1, "unit": "%"},
      {"measurement": "viability, T/C", "setting": "[3]", "result": 84, "unit": "%"},
      {"measurement": "viability, T/C", "setting": "[4]", "result": 91.8, "unit": "%"},
      {"measurement": "viability, T/C", "setting": "second compound 0.1 µM, first compound 0.000316 µM", "result": 105, "unit": "%"},
      {"measurement": "viability, T/C", "setting": "second compound 0.1 µM, first compound 0.001 µM", "result": 110, "unit": "%"},
      {"measurement": "viability, T/C", "setting": "[5]", "result": 97.5, "unit": "%"},
      {"measurement": "viability, T/C", "setting": "[6]", "result": 92.1, "unit": "%"},
      {"measurement": "viability, T/C", "setting": "[7]", "result": 116, "unit": "%"},
      {"measurement": "viability, T/C", "setting": "[8]", "result": 114, "unit": "%"},
      {"measurement": "viability, T/C", "setting": "second compound 0.316 µM, first compound 0.000316 µM", "result": 101, "unit": "%"},
      {"measurement": "viability, T/C", "setting": "second compound 0.316 µM, first compound 0.001 µM", "result": 93.8, "unit": "%"},
      {"measurement": "viability, T/C", "setting": "[9]", "result": 103, "unit": "%"},
      {"measurement": "viability, T/C", "setting": "[10]", "result": 107, "unit": "%"},
      {"measurement": "viability, T/C", "setting": "[11]", "result": 116, "unit": "%"},
      {"measurement": "viability, T/C", "setting": "[12]", "result": 69.2, "unit": "%"},
      {"measurement": "viability, T/C", "setting": "second compound 1 µM, first compound 0.000316 µM", "result": 91.2, "unit": "%"},
      {"measurement": "viability, T/C", "setting": "second compound 1 µM, first compound 0.001 µM", "result": 97.2, "unit": "%"},
      {"measurement": "viability, T/C", "setting": "[13]", "result": 75.7, "unit": "%"},
      {"measurement": "viability, T/C", "setting": "[14]", "result": 102, "unit": "%"},
      {"measurement": "viability, T/C", "setting": "[15]", "result": 98.7, "unit": "%"},
      {"measurement": "viability, T/C", "setting": "[16]", "result": 74.3, "unit": "%"},
      {"measurement": "viability, T/C", "setting": "second compound 3.16 µM, first compound 0.000316 µM", "result": 97.3, "unit": "%"},
      {"measurement": "viability, T/C", "setting": "second compound 3.16 µM, first compound 0.001 µM", "result": 101, "unit": "%"},
      {"measurement": "viability, T/C", "setting": "[17]", "result": 82.5, "unit": "%"},
      {"measurement": "viability, T/C", "setting": "[18]", "result": 83.2, "unit": "%"},
      {"measurement": "viability, T/C", "setting": "[19]", "result": 99.5, "unit": "%"},
      {"measurement": "viability, T/C", "setting": "[20]", "result": 88.6, "unit": "%"},
      {"measurement": "viability, T/C", "setting": "second compound 10 µM, first compound 0.000316 µM", "result": 97.2, "unit": "%"},
      {"measurement": "viability, T/C", "setting": "second compound 10 µM, first compound 0.001 µM", "result": 92.2, "unit": "%"},
      {"measurement": "viability, T/C", "setting": "[21]", "result": 119, "unit": "%"},
      {"measurement": "viability, T/C", "setting": "[22]", "result": 85.7, "unit": "%"},
      {"measurement": "viability, T/C", "setting": "[23]", "result": 94.4, "unit": "%"},
      {"measurement": "viability, T/C", "setting": "[24]", "result": 87.8, "unit": "%"}
    ]},
    {"smiles": "CCc1c2c(nc3ccc(O)cc13)-c1cc3c(c(=O)n1C2)COC(=O)[C@]3(O)CC", "note": "+ Nc1ccc(C#CCN(C(=O)Cc2ncc(C(F)(F)F)cc2C(F)(F)F)c2ccc(F)cc2)nn1", "values": [
      {"measurement": "IC50", "setting": "second compound 0.0316 µM", "result": "> 1000", "unit": "nM"},
      {"measurement": "IC50", "setting": "second compound 0.1 µM", "result": "> 1000", "unit": "nM"},
      {"measurement": "IC50", "setting": "second compound 0.316 µM", "result": "> 1000", "unit": "nM"},
      {"measurement": "IC50", "setting": "second compound 1 µM", "result": "> 1000", "unit": "nM"},
      {"measurement": "IC50", "setting": "second compound 3.16 µM", "result": "> 1000", "unit": "nM"},
      {"measurement": "IC50", "setting": "second compound 10 µM", "result": "> 1000", "unit": "nM"},
      {"measurement": "viability, T/C", "setting": "[1]", "result": 86.6, "unit": "%"},
      {"measurement": "viability, T/C", "setting": "[2]", "result": 96, "unit": "%"},
      {"measurement": "viability, T/C", "setting": "[3]", "result": 84.6, "unit": "%"},
      {"measurement": "viability, T/C", "setting": "[4]", "result": 97.7, "unit": "%"},
      {"measurement": "viability, T/C", "setting": "second compound 0.0316 µM, first compound 0.316 µM", "result": 106, "unit": "%"},
      {"measurement": "viability, T/C", "setting": "second compound 0.0316 µM, first compound 1 µM", "result": 81, "unit": "%"},
      {"measurement": "viability, T/C", "setting": "[5]", "result": 103, "unit": "%"},
      {"measurement": "viability, T/C", "setting": "[6]", "result": 80.7, "unit": "%"},
      {"measurement": "viability, T/C", "setting": "[7]", "result": 76.9, "unit": "%"},
      {"measurement": "viability, T/C", "setting": "[8]", "result": 102, "unit": "%"},
      {"measurement": "viability, T/C", "setting": "second compound 0.1 µM, first compound 0.316 µM", "result": 96.2, "unit": "%"},
      {"measurement": "viability, T/C", "setting": "second compound 0.1 µM, first compound 1 µM", "result": 75.4, "unit": "%"},
      {"measurement": "viability, T/C", "setting": "[9]", "result": 98.6, "unit": "%"},
      {"measurement": "viability, T/C", "setting": "[10]", "result": 83.1, "unit": "%"},
      {"measurement": "viability, T/C", "setting": "[11]", "result": 80.2, "unit": "%"},
      {"measurement": "viability, T/C", "setting": "[12]", "result": 101, "unit": "%"},
      {"measurement": "viability, T/C", "setting": "second compound 0.316 µM, first compound 0.316 µM", "result": 117, "unit": "%"},
      {"measurement": "viability, T/C", "setting": "second compound 0.316 µM, first compound 1 µM", "result": 73.5, "unit": "%"},
      {"measurement": "viability, T/C", "setting": "[13]", "result": 106, "unit": "%"},
      {"measurement": "viability, T/C", "setting": "[14]", "result": 82.7, "unit": "%"},
      {"measurement": "viability, T/C", "setting": "[15]", "result": 81.9, "unit": "%"},
      {"measurement": "viability, T/C", "setting": "[16]", "result": 85.8, "unit": "%"},
      {"measurement": "viability, T/C", "setting": "second compound 1 µM, first compound 0.316 µM", "result": 101, "unit": "%"},
      {"measurement": "viability, T/C", "setting": "second compound 1 µM, first compound 1 µM", "result": 63.4, "unit": "%"},
      {"measurement": "viability, T/C", "setting": "[17]", "result": 108, "unit": "%"},
      {"measurement": "viability, T/C", "setting": "[18]", "result": 96.8, "unit": "%"},
      {"measurement": "viability, T/C", "setting": "[19]", "result": 96.1, "unit": "%"},
      {"measurement": "viability, T/C", "setting": "[20]", "result": 109, "unit": "%"},
      {"measurement": "viability, T/C", "setting": "second compound 3.16 µM, first compound 0.316 µM", "result": 99.5, "unit": "%"},
      {"measurement": "viability, T/C", "setting": "second compound 3.16 µM, first compound 1 µM", "result": 65, "unit": "%"},
      {"measurement": "viability, T/C", "setting": "[21]", "result": 100, "unit": "%"},
      {"measurement": "viability, T/C", "setting": "[22]", "result": 97.1, "unit": "%"},
      {"measurement": "viability, T/C", "setting": "[23]", "result": 83.2, "unit": "%"},
      {"measurement": "viability, T/C", "setting": "[24]", "result": 81.5, "unit": "%"},
      {"measurement": "viability, T/C", "setting": "second compound 10 µM, first compound 0.316 µM", "result": 117, "unit": "%"},
      {"measurement": "viability, T/C", "setting": "second compound 10 µM, first compound 1 µM", "result": 70.4, "unit": "%"}
    ]}
  ]
}
